This note sets out measurements from ChEMBL document CHEMBL1140490, “Design and synthesis via click chemistry of 8,9-anhydroerythromycin A 6,9-hemiketal analogues with anti-MRSA and -VRE activity” (2007).

≈ marks a conversion by molar mass, not a printed value.

Test [1] has as its system Staphylococcus aureus. Description: Antimicrobial activity against Staphylococcus aureus FDA209P by serial dilution method. It counts as functional.
In test [2] the test system is Staphylococcus aureus. Description: Antimicrobial activity against Staphylococcus aureus Smith by serial dilution method. The test is classed as functional.
For test [3], the system named is Staphylococcus aureus. The experiment in a line: Antimicrobial activity against methicillin-resistant Staphylococcus aureus N315 IR94 by serial dilution method. The test is classed as functional.
In test [4] the test system is Staphylococcus aureus. Description: Antimicrobial activity against methicillin-resistant Staphylococcus aureus N315 IR94-HR-1 by serial dilution method. The test is classed as functional.
Test [5] concerns Staphylococcus aureus. Description: Antimicrobial activity against methicillin-resistant Staphylococcus aureus 70 by serial dilution method. The test is classed as functional.
In test [6] the test system is Staphylococcus aureus. The experiment in a line: Antimicrobial activity against methicillin-resistant Staphylococcus aureus 92-1191 by serial dilution method. It counts as functional.
The test system of test [7] is Staphylococcus aureus. The experiment in a line: Antimicrobial activity against Staphylococcus aureus ISP447 by serial dilution method. The test is classed as functional.
The subject of test [8] is Staphylococcus aureus. The experiment in a line: Antimicrobial activity against Staphylococcus aureus ISP217 by serial dilution method. The test is classed as functional.
Test [9] relates to Staphylococcus aureus. Description: (§1) Antimicrobial activity against Staphylococcus aureus 8325 by serial dilution method. It counts as functional.
Test [10] has as its system Staphylococcus aureus. The description is as §1. It counts as functional. This is another data set of the same source.
Another test has as its system Enterococcus faecalis. The experiment in a line: Antimicrobial activity against vancomycin-resistant Enterococcus faecalis NCTC-12201 by serial dilution method. The test is classed as functional.
Another test deals with Escherichia coli. Description: Antimicrobial activity against Escherichia coli NIHJ JC-2 by serial dilution method. The test is classed as functional.
The next test deals with Enterococcus faecium. The experiment in a line: Antimicrobial activity against vancomycin-resistant Enterococcus faecium NCTC-12203 by serial dilution method.

In the case of `CC[C@H]1OC(=O)[C@H](C)[C@@H](OCc2cn(CCO)nn2)[C@H](C)[C@@H](O[C@@H]2O[C@H](C)C[C@H](N(C)C)[C@H]2O)[C@@]2(C)CC(C)=C(O2)[C@H](C)[C@@H](OC(=O)C(C)C)[C@]1(C)OC(=O)C(C)C`, the MIC (as a rule, the lowest concentration that inhibits growth of the organism) against Staphylococcus aureus [1] is 64 µg/mL (≈ 77.8 µM); with Staphylococcus aureus [2] it was over 128 µg/mL; in the test with Staphylococcus aureus [3], 64 µg/mL (≈ 77.8 µM); in the test on Staphylococcus aureus [4] it was 64 µg/mL (≈ 77.8 µM); against Staphylococcus aureus [5] it was 64 µg/mL (≈ 77.8 µM); in the test with Staphylococcus aureus [6] it was 128 µg/mL (≈ 156 µM). Moreover, the MIC with Staphylococcus aureus [7] is over 128 µg/mL; in the test with Staphylococcus aureus [8], 128 µg/mL (≈ 156 µM); in the test on Staphylococcus aureus [9], 128 µg/mL (≈ 156 µM); in the test with Staphylococcus aureus [10], 64 µg/mL (≈ 77.8 µM); with Enterococcus faecalis, 128 µg/mL (≈ 156 µM); against Escherichia coli, over 128 µg/mL. Moreover, in the test with Enterococcus faecium, the MIC is 64 µg/mL (≈ 77.8 µM).

As for `CC[C@H]1OC(=O)[C@H](C)[C@@H](OCc2cn(-c3cccc4ccccc34)nn2)[C@H](C)[C@@H](O[C@@H]2O[C@H](C)C[C@H](N(C)C)[C@H]2O)[C@@]2(C)CC(C)=C(O2)[C@H](C)[C@@H](OC(=O)C(C)C)[C@]1(C)OC(=O)C(C)C`, the MIC came out at 32 µg/mL (≈ 35.4 µM) against Staphylococcus aureus [1]; 64 µg/mL (≈ 70.7 µM) against Staphylococcus aureus [2]; 16 µg/mL (≈ 17.7 µM) against Staphylococcus aureus [3]; 16 µg/mL (≈ 17.7 µM) against Staphylococcus aureus [4]; 16 µg/mL (≈ 17.7 µM) in the test with Staphylococcus aureus [5]; 32 µg/mL (≈ 35.4 µM) against Staphylococcus aureus [6]. Further, the MIC is 32 µg/mL (≈ 35.4 µM) against Staphylococcus aureus [7]; 16 µg/mL (≈ 17.7 µM) against Staphylococcus aureus [8]; 64 µg/mL (≈ 70.7 µM) against Staphylococcus aureus [9]; 16 µg/mL (≈ 17.7 µM) against Staphylococcus aureus [10]; 32 µg/mL (≈ 35.4 µM) in the test on Enterococcus faecalis; over 128 µg/mL in the test with Escherichia coli. The same molecule had an MIC in the test with Enterococcus faecium of 16 µg/mL (≈ 17.7 µM).

Regarding `CC[C@H]1OC(=O)[C@H](C)[C@@H](OCc2cn(C34CC5CC(CC(C5)C3)C4)nn2)[C@H](C)[C@@H](O[C@@H]2O[C@H](C)C[C@H](N(C)C)[C@H]2O)[C@@]2(C)CC(C)=C(O2)[C@H](C)[C@@H](OC(=O)C(C)C)[C@]1(C)OC(=O)C(C)C`, the MIC came out at 8 µg/mL (≈ 8.76 µM) against Staphylococcus aureus [1]; 16 µg/mL (≈ 17.5 µM) in the test on Staphylococcus aureus [2]; 8 µg/mL (≈ 8.76 µM) in the test on Staphylococcus aureus [3]; 8 µg/mL (≈ 8.76 µM) against Staphylococcus aureus [4]; 8 µg/mL (≈ 8.76 µM) against Staphylococcus aureus [5]; 8 µg/mL (≈ 8.76 µM) against Staphylococcus aureus [6]. Moreover, the MIC in the test on Staphylococcus aureus [7] is 16 µg/mL (≈ 17.5 µM); in the test with Staphylococcus aureus [8], 8 µg/mL (≈ 8.76 µM); against Staphylococcus aureus [9] it was 16 µg/mL (≈ 17.5 µM); with Staphylococcus aureus [10], 8 µg/mL (≈ 8.76 µM); in the test with Enterococcus faecalis, 8 µg/mL (≈ 8.76 µM); against Escherichia coli, over 128 µg/mL. Besides, the MIC with Enterococcus faecium turned out to be 8 µg/mL (≈ 8.76 µM).

Turning to `CC[C@H]1OC(=O)[C@H](C)[C@@H](OCc2cn(CC(=O)O)nn2)[C@H](C)[C@@H](O[C@@H]2O[C@H](C)C[C@H](N(C)C)[C@H]2O)[C@@]2(C)CC(C)=C(O2)[C@H](C)[C@@H](OC(=O)C(C)C)[C@]1(C)OC(=O)C(C)C`, the MIC with Staphylococcus aureus [1], against Staphylococcus aureus [2], in the test on Staphylococcus aureus [7], in the test on Staphylococcus aureus [8], with Staphylococcus aureus [9] and in the test with Staphylococcus aureus [10] was over 128 µg/mL each time. Besides, the MIC with Enterococcus faecalis, in the test on Escherichia coli and in the test on Enterococcus faecium was over 128 µg/mL in each case.

As to `CC[C@H]1OC(=O)[C@H](C)[C@@H](O[C@H]2C[C@@](C)(OC)[C@@H](OC=O)[C@H](C)O2)[C@H](C)[C@@H](O[C@@H]2O[C@H](C)C[C@H](N(C)C)[C@H]2OC(C)=O)[C@@]2(C)CC(C)=C(O2)[C@H](C)[C@@H](OC(=O)C(C)C)[C@]1(C)OC(=O)C(C)C`, the MIC against Staphylococcus aureus [1], in the test on Staphylococcus aureus [2], against Staphylococcus aureus [3], in the test on Staphylococcus aureus [4], in the test on Staphylococcus aureus [5] and in the test on Staphylococcus aureus [7] was 16 µg/mL (≈ 17.3 µM) in each case. Moreover, the MIC with Staphylococcus aureus [8] was 16 µg/mL (≈ 17.3 µM); with Staphylococcus aureus [9], 32 µg/mL (≈ 34.6 µM); in the test on Staphylococcus aureus [10], 16 µg/mL (≈ 17.3 µM); in the test on Enterococcus faecalis it was 32 µg/mL (≈ 34.6 µM); in the test on Escherichia coli, over 128 µg/mL; against Enterococcus faecium, 32 µg/mL (≈ 34.6 µM).

As for `CC[C@H]1OC(=O)[C@H](C)[C@@H](OCc2cn(-c3cccnc3)nn2)[C@H](C)[C@@H](O[C@@H]2O[C@H](C)C[C@H](N(C)C)[C@H]2O)[C@@]2(C)CC(C)=C(O2)[C@H](C)[C@@H](OC(=O)C(C)C)[C@]1(C)OC(=O)C(C)C`, the MIC came out at 32 µg/mL (≈ 37.4 µM) with Staphylococcus aureus [1]; 64 µg/mL (≈ 74.8 µM) in the test with Staphylococcus aureus [2]; 16 µg/mL (≈ 18.7 µM) in the test with Staphylococcus aureus [3]; 16 µg/mL (≈ 18.7 µM) in the test with Staphylococcus aureus [4]; 16 µg/mL (≈ 18.7 µM) in the test with Staphylococcus aureus [5]; 32 µg/mL (≈ 37.4 µM) against Staphylococcus aureus [6]. Moreover, the MIC against Staphylococcus aureus [7] is 64 µg/mL (≈ 74.8 µM); in the test with Staphylococcus aureus [8], 16 µg/mL (≈ 18.7 µM); against Staphylococcus aureus [9] it was 128 µg/mL (≈ 150 µM); with Staphylococcus aureus [10] it was 16 µg/mL (≈ 18.7 µM); in the test with Enterococcus faecalis, 32 µg/mL (≈ 37.4 µM); in the test on Escherichia coli, over 128 µg/mL. The molecule further gave an MIC against Enterococcus faecium of 16 µg/mL (≈ 18.7 µM).
